Results from US12358949B2, “Defensin fragments for use in therapy or prophylaxis” (priority 2019, dated 2025).
Read-outs that look alike come from different tables or passages of the source. Where a SMILES comes first, the peptide text is derived from it. Bridges are numbered along the chain shown (N, C = ends).

Legend:
[1] = Incubation of reduced peptide with human duodenal fluid, LC/MS; type: in vitro ADME; settings: after reduction with 2 mM TCEP; duodenal fluid 30 minutes at 37° C.
Method: 2.5 μg of HD-5 or HD-6 were incubated in 50 mM NH4HCO3 buffer (pH 8.0) (Fluka) with 2 mM tris(2-carboxyethyl) phosphine for 15 minutes at 37° C. Afterwards human duodenal fluid was added and incubated for additional 30 minutes at 37° C. At last, formic acid and acetonitrile was added in a final concentration of 0.5% and 10%, respectively, and analyzed the samples by mass spectrometry. Mass spectrometry was performed as a LC/MS system using an Agilent 1200 series HPLC with an Agilent Advanced Bio Peptide Map (2.1×150 mm, 2.7 μm) column with a flow of 0.4 ml/min at 55° C. column temperature and a 6540 UHD Q-TOF LC/MS system (Agilent) for mass analysis. The samples were separated by a gradient of acetonitrile in 0.1% formic acid. The gradient started at 2% acetonitrile for 4 minutes and then increased during 35 minutes to 45%. Mass spectrometric analyses were performed in single MS mode from 100 to 3400 m/z with positive ion polarity and were analyzed by Agilent MassHunter Quantitative Analysis B 06.00 software.

commensal bacteria = test: Radial diffusion assay, HD-5 fragments; type: cell-based; settings: 4 μg fragment, 2 μg full-length peptide; commensal bacteria (FIG. 3)
Method: In the RDA 2 μg of the full length and 4 μg of each fragment were used. An inhibition zone greater than 5 mm was determined as high activity, between 2.5 and 5 mm as low activity and 2.5 mm were the diameter of the punched well and therefore no activity.
(§1) Antimicrobial activity of all peptides was tested with a modified radial diffusion assay from Lehrer et al^12 Shortly described, log-phase bacteria grew (anaerobic bacteria with AnaeroGen, Oxoid in anaerobic jars) in liquid tryptic soy broth (TSB) (Becton Dickinson). After several wash steps in 10 mM sodium phosphate buffer pH 7.4, 4×10^6 cfu/ml was used per assay. To measure the antibacterial effect of the identified peptide fragments, the bacteria were incubated in 10 mM sodium phosphate (pH 7.4) containing 0.3 mg/ml TSB powder and 1% (w/v) low EEO-agarose (Applichem). Peptide fragments were then pipetted into punched wells and allowed to diffuse for 3 hours at 37° C. After that a nutrient rich gel with 6% TSB (w/v) and 1% agarose in 10 mM sodium phosphate buffer was poured on top of the first gel. After 24 hours the inhibition zones were measured. […] All experiments were carried out at least three times.

pathogenic bacteria = test: Radial diffusion assay, HD-5 fragments; type: cell-based; settings: pathogenic Gram-positive and Gram-negative bacteria (FIG. 4)
Method: A heat map system with high activity (inhibition zone in the RDA>5 mm), low activity (2.5 to 5 mm) and no activity (2.5 mm) was used.
as §1

A. baumannii 4-MRGN = type: cell-based
Method: (§2) The tested bacteria were incubated overnight in 1×TSB broth, centrifuged and washed with 10 mM sodium phosphate buffer containing 1% (w/v) TSB broth. 5×10^5 cfu/ml bacteria were mixed with different peptide concentrations in 10 mM sodium phosphate buffer with 1% (w/v) TSB (final volume 100 μl) and incubated for 2 hours at 37° C. Afterwards we added 100 μl 2×TSB broth and we measured the optical density at 600 nm (Spark 10M, Tecan, Austria). Bacterial growth was monitored for 12 hours, growing at 37° C. with shaking during the measurements each 30 minutes, except for Akkermansia muciniphila which were incubated at 37° C. in an anaerobic jar and growth was measured after 72 hours.

P. aeruginosa ATCC 27853 = type: cell-based
Method: as §2

E. coli MC1000 = test: Transmission electron microscopy of peptide treated bacteria; type: cell-based; settings: 200 μg/ml, 2 hours
Method: Transmission electron microcscopy experiments were performed as previously described^11. 6×10^8 cfu E. coli MC1000 was incubated with 200 μg/ml of each peptide for 2 hours. Bacteria were fixed in Karnovsky's fixative, embedded in agarose, coagulated, cut in small blocks and fixed again in Karnovsky's solution. After post-fixation and embedding in glycid ether blocks were cut using an ultra-microtome. Sections (30 nm) were mounted on copper grids and analyzed using a Zeiss LIBRA 120 transmissions electron microscope.

CaCo2/TC7 cells = system: CaCo2/TC7 cells
Method: CaCo2/TC7 (X, X) and HT29 MTX […] […] Experiments were carried out in duplicates.

C. albicans 529L = type: cell-based
A. baumannii DSM 30007 = type: cell-based
Method: as §2

P. aeruginosa XPAT1 = type: cell-based
Method: as §2

P. aeruginosa 4-MRGN = type: cell-based
Method: as §2

E. faecium 475747 = type: cell-based
Method: as §2

E. coli JM83 = type: cell-based
Method: as §2

S. aureus ATCC 25923 = type: cell-based
Method: as §2

E. faecium DSM 20477 = type: cell-based
Method: as §2

K. pneumoniae 3-MRGN = type: cell-based
Method: as §2

P. aeruginosa PAO1 = type: cell-based
Method: as §2

Y. enterocolitica = type: cell-based
Method: as §2

P. aeruginosa XPAT2 = type: cell-based
Method: as §2

K. pneumoniae DSM 30104 = type: cell-based
Method: as §2

S. aureus USA300 = type: cell-based
Method: as §2

human erythrocytes = test: Hemolytic assay; type: cell-based; settings: compared to Melittin
Method: Hemolytic activity was measured after an existing protocol^13. We obtained blood from two voluntary donors (sample collection had been previously approved by the Ethical Committee of the University Hospital of Tübingen, Germany) and 1 ml blood was washed with PBS two times. Afterwards we centrifuged the blood at 1000 g and performed a 1% (v/v) blood suspension in PBS. The blood suspension was incubated with different peptide concentrations (final concentration 0.5%) for one hour at 37° C. Then the samples were centrifuged at 1000 g for 10 minutes and the supernatant was collected and measured at 414 nm. […] These experiments were carried out in duplicates.

E. faecalis ATCC 19433 = test: Turbidity assay, MIC by optical density after 18 h; type: cell-based

Method for HT29 MTX E29 cells: CaCo2/TC7 (X, X) and HT29 MTX [MUT] (X, X) were seed in a 96 well plate in 90 μl media (1500 cells/well) and incubated at 37° C. for 24 hours. Afterwards peptide treatment with different concentrations started (volume of 10 μl solved in 0.01% acetic acid) and cells were incubated for 96 hours. Untreated and 1% Triton-X treated cells were used as controls. After the incubation we added 100 μl of CellTiter Glo2.0 solution and started our measurement protocol. The measurement was carried out in a Spark 10M (Tecan), starting with 12 minutes continuously shaking followed by the luminescence measurement with an integration time from 1 second per well. Experiments were carried out in duplicates.

**Q.** For `CC[C@H](C)[C@@H]1NC(=O)[C@H](CCC(=O)O)NC(=O)[C@@H]2CSSC[C@@H]3NC(=O)[C@H](Cc4ccc(O)cc4)NC(=O)[C@@H](NC(=O)[C@@H](NC(=O)[C@H](C)N)[C@@H](C)O)CSSC[C@@H](C(=O)N[C@@H](CCCNC(=N)N)C(=O)O)NC(=O)[C@H](CSSC[C@H](NC(=O)[C@H](CCCNC(=N)N)NC(=O)CNC(=O)[C@H]([C@@H](C)O)NC(=O)[C@H](CCCNC(=N)N)NC3=O)C(=O)N[C@@H](C)C(=O)N[C@@H]([C@@H](C)O)C(=O)N[C@@H](CCCNC(=N)N)C(=O)N[C@@H](CCC(=O)O)C(=O)N[C@@H](CO)C(=O)N[C@@H](CC(C)C)C(=O)N[C@@H](CO)C(=O)NCC(=O)N[C@@H](C(C)C)C(=O)N2)NC(=O)[C@H](CC(C)C)NC(=O)[C@H](CCCNC(=N)N)NC(=O)[C@H](Cc2ccc(O)cc2)NC(=O)[C@H](CC(C)C)NC(=O)[C@H](CCCNC(=N)N)NC(=O)CNC(=O)[C@H](CO)NC1=O` [HD-5, reference compound] (H-ATCYCRTGRCATRESLSGVCEISGRLYRLCCR-OH; disulfide 3-31, 5-20, 10-30 (inferred); N-terminus and C-terminus assumed), which “susceptibility to proteolytic digestion” value [1] is on record?
**A.** digested by intestinal proteases

**Q.** What about the “antimicrobial activity in radial diffusion assay” value (commensal bacteria) of the same molecule?
**A.** broad antimicrobial activity

**Q.** And the “antimicrobial activity in radial diffusion assay” value (pathogenic bacteria)?
**A.** strong effect on the growth of every tested bacterium

**Q.** And the MIC (A. baumannii 4-MRGN; 4-MRGN, 12 h)?
**A.** 6.25 µM

**Q.** What about the MIC (A. baumannii 4-MRGN; A. baumannii 4-MRGN, after 12 hours, listed as fl) of the same molecule?
**A.** 22.4 µg/mL

**Q.** What about the MIC (P. aeruginosa ATCC 27853; ATCC 27853, 12 h) of the same molecule?
**A.** 25 µM

**Q.** What about the MIC (P. aeruginosa ATCC 27853; P. aeruginosa ATCC 27853, after 12 hours, listed as fl) of the same molecule?
**A.** 89.7 µg/mL

**Q.** What about the “phenotype of peptide treated bacteria (TEM)” value (E. coli MC1000) of the same molecule?
**A.** detached inner membrane and small vesicular structures around the bacteria cell envelope

**Q.** For `CC[C@H](C)[C@H](NC(=O)[C@H](CCC(=O)O)NC(=O)[C@H](CS)NC(=O)[C@@H](NC(=O)CNC(=O)[C@H](CO)NC(=O)[C@H](CC(C)C)NC(=O)[C@H](CO)NC(=O)[C@H](CCC(=O)O)NC(=O)[C@H](CCCNC(=N)N)NC(=O)[C@@H](NC(=O)[C@H](C)NC(=O)[C@H](CS)NC(=O)[C@H](CCCNC(=N)N)NC(=O)CNC(=O)[C@@H](NC(=O)[C@H](CCCNC(=N)N)NC(=O)[C@H](CS)NC(=O)[C@H](Cc1ccc(O)cc1)NC(=O)[C@H](CS)NC(=O)[C@@H](NC(=O)[C@H](C)N)[C@@H](C)O)[C@@H](C)O)[C@@H](C)O)C(C)C)C(=O)N[C@@H](CO)C(=O)NCC(=O)N[C@@H](CCCNC(=N)N)C(=O)N[C@@H](CC(C)C)C(=O)N[C@@H](Cc1ccc(O)cc1)C(=O)N[C@@H](CCCNC(=N)N)C(=O)O` [HD-51-28] (H-ATCYCRTGRCATRESLSGVCEISGRLYR-OH; N-terminus and C-terminus assumed), which “antimicrobial activity in radial diffusion assay” value (commensal bacteria) is on record?
**A.** exhibited antimicrobial properties, albeit to a lesser extent than HD-51-9

**Q.** What about the “antimicrobial activity in radial diffusion assay” value (pathogenic bacteria) of the same molecule?
**A.** only minimally active or more selective in terms of different strains

**Q.** And the “phenotype of peptide treated bacteria (TEM)” value (E. coli MC1000)?
**A.** bigger aggregation inside the bacteria

**Q.** Which results are given for `CC(C)C[C@H](NC(=O)[C@H](CCCNC(=N)N)NC(=O)[C@H](CS)NC(=O)[C@H](CO)NC(=O)[C@H](CS)NC(=O)[C@@H](N)C(C)C)C(=O)N[C@H](C(=O)N[C@@H](Cc1ccccc1)C(=O)N[C@@H](CS)C(=O)N[C@@H](CCCNC(=N)N)C(=O)N[C@@H](CCCNC(=N)N)C(=O)O)C(C)C` [HNP-41-11] (H-VCSCRLVFCRR-OH; N-terminus and C-terminus assumed)?
**A.** cytotoxic effects (CaCo2/TC7 cells): minor cytotoxic effects; MIC (C. albicans 529L; 529L, 24 h): 100 µM; MIC (C. albicans 529L; C. albicans 529L, after 24 hours (Table 5)): 134.2 µg/mL; MIC (A. baumannii 4-MRGN; 4-MRGN, 12 h): 25 µM; MIC (A. baumannii 4-MRGN; A. baumannii 4-MRGN, after 12 hours): 33.5 µg/mL; MIC (P. aeruginosa ATCC 27853; ATCC 27853, 12 h): 12.5 µM; MIC (P. aeruginosa ATCC 27853; P. aeruginosa ATCC 27853, after 12 hours): 16.8 µg/mL; MIC (A. baumannii DSM 30007; A. baumannii DSM30007, after 12 hours): 8.4 µg/mL; MIC (A. baumannii DSM 30007; DSM 30007, 12 h): 6.25 µM; MIC (P. aeruginosa XPAT1; P. aeruginosa XPAT1, after 12 hours): 16.8 µg/mL; MIC (P. aeruginosa XPAT1; XPAT1, 12 h): 12.5 µM; MIC (P. aeruginosa 4-MRGN; 4-MRGN, 12 h): 50 µM; MIC (P. aeruginosa 4-MRGN; P. aeruginosa 4-MRGN, after 12 hours): 67.1 µg/mL; MIC (E. faecium 475747; 475747, 12 h): 3.125 µM; MIC (E. faecium 475747; E. faecium 475747, after 12 hours): 4.2 µg/mL; MIC (E. coli JM83; E. coli JM83, after 12 hours): 8.4 µg/mL; MIC (E. coli JM83; JM83, 12 h): 6.25 µM; MIC (S. aureus ATCC 25923; ATCC 25923, 12 h): 12.5 µM; MIC (S. aureus ATCC 25923; S. aureus ATCC25923, after 12 hours): 16.8 µg/mL; MIC (E. faecium DSM 20477; DSM 20477, 12 h): 12.5 µM; MIC (E. faecium DSM 20477; E. faecium DSM20477, after 12 hours): 16.8 µg/mL; MIC (K. pneumoniae 3-MRGN; 3-MRGN, 12 h): 25 µM; MIC (K. pneumoniae 3-MRGN; K. pneumoniae 3-MRGN, after 12 hours): 33.5 µg/mL; MIC (P. aeruginosa PAO1; P. aeruginosa PAO1, after 12 hours): 16.8 µg/mL; MIC (P. aeruginosa PAO1; PAO1, 12 h): 12.5 µM; MIC (Y. enterocolitica; 12 h): 12.5 µM; MIC (Y. enterocolitica; Y. enterocolitica, after 12 hours): 16.8 µg/mL; MIC (P. aeruginosa XPAT2; P. aeruginosa XPAT2, after 12 hours): 16.8 µg/mL; MIC (P. aeruginosa XPAT2; XPAT2, 12 h): 12.5 µM; MIC (K. pneumoniae DSM 30104; DSM 30104, 12 h): 25 µM; MIC (K. pneumoniae DSM 30104; K. pneumoniae DSM30104, after 12 hours): 33.5 µg/mL; MIC (S. aureus USA300; S. aureus USA300, after 12 hours): 67.1 µg/mL; MIC (S. aureus USA300; USA300, 12 h): 50 µM; cytotoxic effects compared to CaCo2/TC7 (HT29 MTX E29 cells): more susceptible; hemolytic activity, in words (human erythrocytes): low hemolytic activity

**Q.** Which “susceptibility to proteolytic digestion” value [1] does the source give for AFTCHCRRSCYSTEYSYGTCTVMGINHRFCCL [HD-6] here?
**A.** protected against proteolytic digestion

**Q.** With “CTRATYCRG [random amino acid structure of HD51-9]” as the molecule, how does the “antimicrobial activity, in words” value (E. faecalis ATCC 19433) read?
**A.** complete dissolving of bactericidal effects
